Results from patent US8647615B1, “Methods for attracting honey bee parasitic mites” (The United States of America, as represented by the …, priority 2010, dated 2014).
“Also recorded” adds a separate entry of the source.

Legend:
Varroa mite forelegs = assay: coupled gas chromatography and electroantennographic detection (GC-EAD) with mite forelegs; design: species or system Varroa mites; conditions: standard with compounds at equal concentrations
Source text: To determine if mites can detect the acid compounds we used coupled gas chromatography and electroantennographic detection (GC-EAD) and electroantennography (EAG). […] A detecting electrode was set up with electrode gel on each contact and then a mite was dissected so that both of its forelegs could be set across the electrodes. The electrode gel provides both a better contact and keeps the forelegs from drying out. For GC-EAD we used a standard containing our two attractive acids along with other short chain acids (i.e., acetic acid, propanoic acid, and hexanoic acid) and common bee odors (iso-pentyl acetate, delta-3-carene, E-(β)-ocimine) at equal concentrations. […] We used EAG to determine the responses of forelegs to the individual detected compounds. […] The dashed line in FIG. 6 represents the level of the control response.

[1] = system: Free-roaming (off the adult bee) mites; assay: four choice arena bioassay; assay type: in vivo, Varroa mites; conditions: for mite attraction: movement toward odor source (contact or position at end of bioassay): 5% by volume in distilled water vs three water controls, 5 minutes, expected value 25%; for arrestant (stopping) behavior: four choice arena, 5% by volume in distilled water
Source text: (§1) We developed a four choice bioassay to evaluate the responses of mites to highly concentrated volatiles released at very close distances (7 mm). Our choice arena consisted of four odor sources presented directly beneath a permeable mesh floor. Each odor source was introduced by capillary release from a capillary tube, the volatiles diffused up through the permeable mesh floor. Free-roaming (off the adult bee) mites were introduced onto a vertical pin placed in the center of the arena. […] The expected value for response is 25% as indicated by the dashed line. […] Free-roaming mites were also exposed to these chemicals under the microscope to visually evaluate mite detection, attraction, and arrestant responses to the acid volatiles.

[2] = system: phoretic mites on adult bees; assay: bottom screen assay: mite-infested adult worker bees in screen bottomed jar over water trap; assay type: in vivo, Varroa mites; conditions: 20 minutes; for mites that fell off bees versus control jars: 200 mite-infested bees per jar, 100 μL, three replicates, control methylene chloride; for mite activity level versus control treatments: exposure to acid volatiles
Description: We then performed a bottom screen assay to assess the response of phoretic mites on adult bees to the acid volatiles. We placed 200 mite-infested adult worker bees in a screen bottomed jar inverted over a water trap. A total of nine jars were used, three replicates of each treatment. The mites and bees were exposed to either butyric acid, isobutyric acid, or a control solvent (methylene chloride) (100 μL) for 20 minutes. Mites that moved off the bees fell into the water trap below. At the end of the experiment, the bees were washed with alcohol to estimate the number of mites that remained on the bees.

Free-roaming mites = assay: visual evaluation of free-roaming mites under the microscope; assay type: in vivo, Varroa mites; conditions: for excitation and search behaviors (questing and casting): acid volatiles from capillary tubes; for movement relative to acid droplets: free-roaming mites
Source text: as §1, with “Once we determined that the mites could perceive and respond to the acid volatiles, we examined whether these acids acted as attractants or repellents. We” for “We”

mites [3] = assay: two choice diffusion bioassay, Ethovision tracking; assay type: in vivo, Varroa mites; conditions: 5% butyric acid in water vs water, 8 mites, p<0.001
Source text: (§2) This experiment used the tracking software Ethovision XT (Noldus Information Technology, Leesburg Va.) to monitor the position of mites in an arena. The arena was a four quadrant petri dish 7.5 cm in diameter, the sides of the dish were ground down so that the separations were all the same height as the edges. A plexiglass ring, 7.5 cm outside diameter 2.5 cm high, with 11 micron Nitex fabric attached to the bottom contained the mite and separated the mite from the odor sources but allowed the odors to diffuse through the fabric. The petri dish quadrants were filled either with 5% butyric acid in water, or water only as a control. Opposite quadrants were filled with the same material so that the bottom of each quadrant was completely covered with liquid. This ensured equal surface areas for diffusion of the solute and solvent. Each experiment was conducted with 8 mites. […] A second set of no choice assays was also performed, these assays used an un-separated petri dish to hold the 5% acid solution and the movements of the mites over the solution were monitored.

mites [4] = assay: no choice test with Ethovision analysis; assay type: in vivo, Varroa mites
Source text: as §2

`CC1=CCC2C(C1)C2(C)C` (stereo not shown) [delta-3-carene] was tested, and the “detection by mite forelegs (GC-EAD)” value (Varroa mite forelegs) was “did not appear to be detected”.
For `CCCCCC(=O)O` [hexanoic acid], the “detection by mite forelegs (GC-EAD)” value (Varroa mite forelegs) was “did not appear to be detected”.
`CCC(=O)O` [propanoic acid] was tested, and the “detection by mite forelegs (GC-EAD)” value (Varroa mite forelegs) was “did not appear to be detected”.
`C=C/C(C)=C/CC=C(C)C` [E-(β)-ocimine] was tested, and the “detection by mite forelegs (GC-EAD)” value (Varroa mite forelegs) was “did not appear to be detected”.
For `CC(=O)O` [acetic acid], the “detection by mite forelegs (GC-EAD)” value (Varroa mite forelegs) was “could clearly detect”.
With `CC(=O)OCCC(C)C` [iso-pentyl acetate] the “detection by mite forelegs (GC-EAD)” value (Varroa mite forelegs) was “did not appear to be detected”.
`CC(C)C(=O)O` [isobutyric acid] was tested, and the “detection by mite forelegs (GC-EAD)” value (Varroa mite forelegs) was “excited by”, the “mite attraction: movement toward odor source (contact or position at end of bioassay)” value [1] was “significantly more likely to move in the direction of” and the “arrestant (stopping) behavior” value [1] was “did not display any arrestant (stopping) behavior”. The “mites that fell off bees versus control jars” value [2] was “significantly more mites fell off bees”, the “mite activity level versus control treatments” value [2] was “much higher activity levels” and the “excitation and search behaviors (questing and casting)” value (Free-roaming mites) was “showed excitation and search behaviors”. The “movement relative to acid droplets” value (Free-roaming mites) was “moved toward and occasionally into acid droplets”.
With `CCCC(=O)O` [butyric acid] the “detection by mite forelegs (GC-EAD)” value (Varroa mite forelegs) was “excited by”, the “time spent in zone over odor source versus control zones” value (mites [3]) was “spent significantly more time” and the “time spent in zone over odor source versus control zones” value (mites [3]; listed as Butyric Acid) was “more time is spent”. The “mite attraction: movement toward odor source (contact or position at end of bioassay)” value [1] was “significantly more likely to move in the direction of”, the “arrestant (stopping) behavior” value [1] was “did not display any arrestant (stopping) behavior” and the “mites that fell off bees versus control jars” value [2] was “significantly more mites fell off bees”. For the same molecule, the “mite activity level versus control treatments” value [2] was “much higher activity levels”, the “excitation and search behaviors (questing and casting)” value (Free-roaming mites) was “showed excitation and search behaviors” and the “movement relative to acid droplets” value (Free-roaming mites) was “moved toward and occasionally into acid droplets”. For the same molecule, the “movement (speed, stopping, time moving) versus water control” value (mites [4]; 5% acid solution, un-separated petri dish) was “significantly less time moving; also recorded: moving slower and stopping more often”, the “time spent in zone/arena over the acid versus water” value (mites [4]; 5% acid solution, un-separated petri dish, p<0.001) was “significantly more time; also recorded: spent more time in the arena” and the “arrestant behaviors on sustained exposure” value (mites [4]; EthoVision diffusion bioassays, sustained exposure to high concentrations of volatiles) was “caused arrestant behaviors”.
